Reference: paper PMC6430017, “Structural and chemical insights into the covalent-allosteric inhibition of the protein kinase Akt” (Chemical Science, 2019)

Columns and labels:
Assay in all cases: SelectScreen Z'LYTE kinase profiling
Assay type in all cases: biochemical
Settings in all cases: ATP at apparent KM
[1] = target: T1, BMX (Homo sapiens, UniProt P51813)
T1 sequence (P51813 1-675): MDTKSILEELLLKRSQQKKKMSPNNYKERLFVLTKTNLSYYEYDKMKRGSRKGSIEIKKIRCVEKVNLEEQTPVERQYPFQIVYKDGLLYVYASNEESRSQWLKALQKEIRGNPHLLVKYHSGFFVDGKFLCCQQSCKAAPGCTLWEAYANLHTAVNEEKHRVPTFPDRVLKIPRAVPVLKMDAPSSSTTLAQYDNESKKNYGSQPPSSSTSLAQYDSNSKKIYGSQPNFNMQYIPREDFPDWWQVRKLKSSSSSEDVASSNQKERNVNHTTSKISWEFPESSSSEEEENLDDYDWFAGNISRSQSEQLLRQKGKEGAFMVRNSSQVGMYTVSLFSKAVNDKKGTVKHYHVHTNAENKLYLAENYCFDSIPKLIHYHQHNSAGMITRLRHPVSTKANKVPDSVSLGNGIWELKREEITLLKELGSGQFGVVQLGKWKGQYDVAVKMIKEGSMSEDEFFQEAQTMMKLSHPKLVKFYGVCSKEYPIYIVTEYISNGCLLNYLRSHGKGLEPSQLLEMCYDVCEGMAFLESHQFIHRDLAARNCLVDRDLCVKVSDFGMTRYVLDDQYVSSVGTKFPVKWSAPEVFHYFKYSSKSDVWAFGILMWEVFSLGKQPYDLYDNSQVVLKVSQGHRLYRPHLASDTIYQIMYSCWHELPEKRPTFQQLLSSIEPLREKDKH
Experimental: (§1) protein kinases at a compound concentration of 1 µM. Measurements were performed in duplicates
(§2) and at the particular apparent ATP KM of each individual kinase employing the activity based Z’LYTE®
(§3) kinase assay of the SelectScreen® Kinase Profiling Services (ThermoFisher Scientific).
(§4) kinases at a compound concentration of 1 µM. Measurements were performed in duplicates and at
(§5) the particular apparent ATP KM of each individual kinase employing the activity based Z’LYTE® kinase
(§6) assay of the SelectScreen® Kinase Profiling Services (ThermoFisher Scientific).

[2] = target: T2, JAK3 (Homo sapiens, UniProt P52333)
T2 sequence (P52333 1-1124): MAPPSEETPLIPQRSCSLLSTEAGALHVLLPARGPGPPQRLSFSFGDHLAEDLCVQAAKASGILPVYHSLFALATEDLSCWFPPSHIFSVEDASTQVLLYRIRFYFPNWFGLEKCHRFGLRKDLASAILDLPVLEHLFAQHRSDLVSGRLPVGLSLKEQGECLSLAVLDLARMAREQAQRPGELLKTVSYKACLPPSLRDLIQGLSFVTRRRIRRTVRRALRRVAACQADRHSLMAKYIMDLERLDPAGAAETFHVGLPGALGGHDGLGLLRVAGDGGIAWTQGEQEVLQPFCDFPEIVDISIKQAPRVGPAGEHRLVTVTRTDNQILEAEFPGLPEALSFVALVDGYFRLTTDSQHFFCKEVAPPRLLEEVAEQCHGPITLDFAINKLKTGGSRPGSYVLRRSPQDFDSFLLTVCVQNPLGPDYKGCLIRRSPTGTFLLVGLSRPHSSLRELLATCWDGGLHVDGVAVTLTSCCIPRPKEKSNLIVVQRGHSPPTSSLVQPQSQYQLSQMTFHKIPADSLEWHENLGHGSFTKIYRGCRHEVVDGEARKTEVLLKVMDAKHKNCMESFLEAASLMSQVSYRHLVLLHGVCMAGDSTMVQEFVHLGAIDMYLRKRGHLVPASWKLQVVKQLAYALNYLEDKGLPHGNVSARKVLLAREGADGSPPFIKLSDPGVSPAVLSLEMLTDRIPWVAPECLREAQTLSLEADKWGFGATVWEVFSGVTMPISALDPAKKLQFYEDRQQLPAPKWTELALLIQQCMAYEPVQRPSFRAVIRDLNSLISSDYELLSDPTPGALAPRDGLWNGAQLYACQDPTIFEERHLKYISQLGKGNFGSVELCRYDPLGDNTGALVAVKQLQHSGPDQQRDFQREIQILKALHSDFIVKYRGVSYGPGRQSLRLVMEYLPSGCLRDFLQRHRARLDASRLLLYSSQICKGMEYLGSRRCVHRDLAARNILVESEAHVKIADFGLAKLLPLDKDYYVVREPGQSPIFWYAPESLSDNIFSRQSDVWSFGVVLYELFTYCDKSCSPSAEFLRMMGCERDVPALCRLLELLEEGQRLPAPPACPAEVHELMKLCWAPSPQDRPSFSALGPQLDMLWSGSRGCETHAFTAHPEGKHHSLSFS
Experimental: as §1, §2, §3, §4, §5, §6

[3] = target: CDK2/cyclin A (Homo sapiens, UniProt P24941)
Experimental: as §1, §2, §3, §4, §5, §6

[4] = target: KIT (Homo sapiens, UniProt P10721)
Experimental: as §1, §2, §3, §4, §5, §6

[5] = target: PLK1 (Homo sapiens, UniProt P53350)
[6] = target: PASK (Homo sapiens, UniProt Q96RG2)
Experimental: as §1, §2, §3, §4, §5, §6

[7] = target: CDC42 BPA (MRCKA) (Homo sapiens, UniProt Q5VT25)
Experimental: as §1, §2, §3, §4, §5, §6

[8] = target: JAK2 (Homo sapiens, UniProt O60674)
Experimental: as §1, §2, §3, §4, §5, §6

[9] = target: NTRK2 (TRKB) (Homo sapiens, UniProt Q16620)
Experimental: as §1, §2, §3, §4, §5, §6

[10] = target: T3, PRKG2 (PKG2) (Homo sapiens, UniProt Q13237)
T3 sequence (Q13237 1-762): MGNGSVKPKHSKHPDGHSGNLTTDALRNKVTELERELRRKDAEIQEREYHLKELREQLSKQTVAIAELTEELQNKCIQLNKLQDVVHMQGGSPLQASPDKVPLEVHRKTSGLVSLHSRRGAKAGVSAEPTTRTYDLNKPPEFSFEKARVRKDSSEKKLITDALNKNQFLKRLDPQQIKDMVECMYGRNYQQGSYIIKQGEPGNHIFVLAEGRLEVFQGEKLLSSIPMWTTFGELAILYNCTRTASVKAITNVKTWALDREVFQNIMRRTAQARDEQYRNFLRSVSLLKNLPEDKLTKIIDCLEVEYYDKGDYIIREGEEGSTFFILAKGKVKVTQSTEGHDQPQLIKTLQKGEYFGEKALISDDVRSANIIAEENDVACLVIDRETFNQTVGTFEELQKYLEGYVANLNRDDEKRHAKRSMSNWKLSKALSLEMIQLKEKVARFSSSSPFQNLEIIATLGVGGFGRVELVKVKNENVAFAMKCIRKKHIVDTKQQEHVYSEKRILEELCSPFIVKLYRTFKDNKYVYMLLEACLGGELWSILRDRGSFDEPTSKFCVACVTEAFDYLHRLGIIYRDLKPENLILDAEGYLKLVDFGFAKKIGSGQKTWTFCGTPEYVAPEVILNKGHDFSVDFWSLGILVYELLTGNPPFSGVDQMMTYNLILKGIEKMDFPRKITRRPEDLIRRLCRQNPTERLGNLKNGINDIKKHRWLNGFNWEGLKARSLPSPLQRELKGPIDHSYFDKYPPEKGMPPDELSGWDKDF
Experimental: as §1, §2, §3, §4, §5, §6

PASK, sequence (Q96RG2 whole entry): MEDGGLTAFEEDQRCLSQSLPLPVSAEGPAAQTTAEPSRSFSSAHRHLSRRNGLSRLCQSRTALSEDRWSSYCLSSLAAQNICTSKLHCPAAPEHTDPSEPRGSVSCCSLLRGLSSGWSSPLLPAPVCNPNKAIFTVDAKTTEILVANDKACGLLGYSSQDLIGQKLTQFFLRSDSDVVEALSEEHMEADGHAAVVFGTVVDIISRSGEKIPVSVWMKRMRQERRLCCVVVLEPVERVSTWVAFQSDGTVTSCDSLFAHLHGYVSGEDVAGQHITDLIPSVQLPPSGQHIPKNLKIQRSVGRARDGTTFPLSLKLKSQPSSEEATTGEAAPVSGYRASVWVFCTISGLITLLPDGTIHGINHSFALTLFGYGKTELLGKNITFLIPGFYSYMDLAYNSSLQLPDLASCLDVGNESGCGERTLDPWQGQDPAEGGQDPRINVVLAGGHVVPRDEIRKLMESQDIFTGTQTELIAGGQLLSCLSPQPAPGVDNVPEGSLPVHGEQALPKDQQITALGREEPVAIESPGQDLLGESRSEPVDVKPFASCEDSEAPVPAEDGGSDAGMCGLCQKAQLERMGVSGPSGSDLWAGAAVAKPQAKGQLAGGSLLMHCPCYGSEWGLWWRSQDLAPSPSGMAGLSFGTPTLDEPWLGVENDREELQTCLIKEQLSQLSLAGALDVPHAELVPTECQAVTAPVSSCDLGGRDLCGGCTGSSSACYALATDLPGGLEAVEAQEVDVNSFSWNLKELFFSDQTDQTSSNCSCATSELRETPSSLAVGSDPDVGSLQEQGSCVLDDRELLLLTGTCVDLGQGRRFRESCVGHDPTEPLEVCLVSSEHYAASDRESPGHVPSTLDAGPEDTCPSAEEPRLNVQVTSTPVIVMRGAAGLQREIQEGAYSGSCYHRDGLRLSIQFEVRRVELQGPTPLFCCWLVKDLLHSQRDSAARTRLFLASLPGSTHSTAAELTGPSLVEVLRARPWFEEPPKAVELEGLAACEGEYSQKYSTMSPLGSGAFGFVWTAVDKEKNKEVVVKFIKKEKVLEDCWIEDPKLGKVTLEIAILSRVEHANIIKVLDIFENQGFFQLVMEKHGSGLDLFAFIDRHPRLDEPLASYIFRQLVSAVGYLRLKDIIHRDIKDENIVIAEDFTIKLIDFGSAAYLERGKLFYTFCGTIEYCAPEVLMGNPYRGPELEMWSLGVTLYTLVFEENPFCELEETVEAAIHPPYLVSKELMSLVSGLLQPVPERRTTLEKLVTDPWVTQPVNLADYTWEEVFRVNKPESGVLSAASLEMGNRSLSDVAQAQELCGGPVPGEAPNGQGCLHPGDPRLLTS
CDC42 BPA (MRCKA), sequence (Q5VT25 whole entry): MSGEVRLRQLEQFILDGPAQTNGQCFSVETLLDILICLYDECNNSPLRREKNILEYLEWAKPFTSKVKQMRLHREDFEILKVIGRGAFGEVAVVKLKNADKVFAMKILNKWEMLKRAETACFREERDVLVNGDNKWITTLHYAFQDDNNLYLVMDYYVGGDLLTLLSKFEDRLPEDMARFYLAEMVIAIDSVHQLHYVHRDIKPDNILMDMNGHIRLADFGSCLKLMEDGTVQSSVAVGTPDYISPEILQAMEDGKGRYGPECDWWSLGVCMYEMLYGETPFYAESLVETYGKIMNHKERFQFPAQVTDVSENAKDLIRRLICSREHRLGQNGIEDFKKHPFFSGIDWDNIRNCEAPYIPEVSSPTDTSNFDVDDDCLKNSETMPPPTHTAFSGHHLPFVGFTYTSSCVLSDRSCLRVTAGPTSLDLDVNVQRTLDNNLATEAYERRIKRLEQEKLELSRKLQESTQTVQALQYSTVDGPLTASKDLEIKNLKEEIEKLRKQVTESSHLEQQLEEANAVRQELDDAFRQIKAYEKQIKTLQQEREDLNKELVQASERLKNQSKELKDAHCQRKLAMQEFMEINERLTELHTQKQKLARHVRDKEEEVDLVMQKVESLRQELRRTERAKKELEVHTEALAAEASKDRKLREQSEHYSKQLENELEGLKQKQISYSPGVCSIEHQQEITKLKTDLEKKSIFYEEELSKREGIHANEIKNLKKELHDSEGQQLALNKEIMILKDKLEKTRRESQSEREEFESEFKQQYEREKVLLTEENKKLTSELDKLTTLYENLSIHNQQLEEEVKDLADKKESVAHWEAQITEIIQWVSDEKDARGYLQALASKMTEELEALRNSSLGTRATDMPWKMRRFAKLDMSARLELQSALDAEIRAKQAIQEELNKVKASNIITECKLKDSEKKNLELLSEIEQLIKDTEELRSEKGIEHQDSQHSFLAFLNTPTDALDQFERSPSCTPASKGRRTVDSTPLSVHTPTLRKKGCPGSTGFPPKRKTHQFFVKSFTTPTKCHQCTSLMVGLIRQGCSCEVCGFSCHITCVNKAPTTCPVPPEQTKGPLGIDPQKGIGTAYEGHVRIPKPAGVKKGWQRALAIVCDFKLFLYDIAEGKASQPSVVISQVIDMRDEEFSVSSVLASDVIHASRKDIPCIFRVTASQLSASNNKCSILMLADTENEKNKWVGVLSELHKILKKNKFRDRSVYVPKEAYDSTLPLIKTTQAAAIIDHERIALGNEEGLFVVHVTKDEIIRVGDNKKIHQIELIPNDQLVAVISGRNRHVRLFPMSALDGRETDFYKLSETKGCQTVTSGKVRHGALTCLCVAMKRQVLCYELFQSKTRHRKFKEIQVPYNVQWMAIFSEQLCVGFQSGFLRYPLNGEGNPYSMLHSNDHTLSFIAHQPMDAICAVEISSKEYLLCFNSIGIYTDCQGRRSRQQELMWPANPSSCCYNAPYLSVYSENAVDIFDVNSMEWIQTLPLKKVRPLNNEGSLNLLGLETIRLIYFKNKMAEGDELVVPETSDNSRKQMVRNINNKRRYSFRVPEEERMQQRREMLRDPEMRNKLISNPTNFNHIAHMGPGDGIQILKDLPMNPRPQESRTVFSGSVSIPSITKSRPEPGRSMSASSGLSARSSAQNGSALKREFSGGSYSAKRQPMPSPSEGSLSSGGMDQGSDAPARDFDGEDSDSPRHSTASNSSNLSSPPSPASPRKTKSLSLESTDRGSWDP
NTRK2 (TRKB), sequence (Q16620 32-822): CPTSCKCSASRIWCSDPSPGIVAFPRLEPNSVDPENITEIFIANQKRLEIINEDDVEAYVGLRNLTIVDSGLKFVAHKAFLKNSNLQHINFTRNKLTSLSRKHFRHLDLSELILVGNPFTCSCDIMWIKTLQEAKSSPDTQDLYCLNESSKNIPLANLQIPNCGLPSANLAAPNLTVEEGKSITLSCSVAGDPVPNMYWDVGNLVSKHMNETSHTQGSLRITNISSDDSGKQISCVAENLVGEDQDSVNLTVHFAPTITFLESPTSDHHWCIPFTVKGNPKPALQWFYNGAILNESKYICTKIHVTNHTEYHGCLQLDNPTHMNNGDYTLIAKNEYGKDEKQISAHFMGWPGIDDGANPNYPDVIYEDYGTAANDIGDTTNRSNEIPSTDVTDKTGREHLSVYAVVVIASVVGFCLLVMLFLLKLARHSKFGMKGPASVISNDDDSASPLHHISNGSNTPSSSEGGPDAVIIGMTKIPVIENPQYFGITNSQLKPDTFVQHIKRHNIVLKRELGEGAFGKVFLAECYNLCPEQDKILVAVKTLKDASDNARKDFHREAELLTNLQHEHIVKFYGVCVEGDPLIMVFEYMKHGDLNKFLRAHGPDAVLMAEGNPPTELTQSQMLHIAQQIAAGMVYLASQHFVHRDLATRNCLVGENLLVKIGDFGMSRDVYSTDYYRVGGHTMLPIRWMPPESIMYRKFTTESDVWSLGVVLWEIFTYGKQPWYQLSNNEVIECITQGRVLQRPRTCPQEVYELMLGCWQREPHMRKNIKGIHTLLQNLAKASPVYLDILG
PLK1, sequence (P53350 whole entry): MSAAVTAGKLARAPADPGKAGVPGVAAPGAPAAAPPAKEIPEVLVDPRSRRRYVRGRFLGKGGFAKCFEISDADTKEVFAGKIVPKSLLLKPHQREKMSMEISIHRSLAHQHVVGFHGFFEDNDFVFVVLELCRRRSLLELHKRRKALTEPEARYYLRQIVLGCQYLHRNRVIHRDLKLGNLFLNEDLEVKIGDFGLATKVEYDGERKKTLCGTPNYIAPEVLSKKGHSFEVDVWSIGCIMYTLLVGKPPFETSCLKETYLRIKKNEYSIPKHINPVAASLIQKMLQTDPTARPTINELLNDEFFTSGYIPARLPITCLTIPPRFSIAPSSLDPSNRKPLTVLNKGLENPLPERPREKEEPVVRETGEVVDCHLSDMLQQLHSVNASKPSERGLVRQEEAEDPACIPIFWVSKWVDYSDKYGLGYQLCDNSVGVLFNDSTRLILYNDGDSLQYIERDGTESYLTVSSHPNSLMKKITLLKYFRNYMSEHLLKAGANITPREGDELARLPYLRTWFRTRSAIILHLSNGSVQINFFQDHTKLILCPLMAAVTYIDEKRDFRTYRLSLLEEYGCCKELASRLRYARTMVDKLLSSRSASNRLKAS

SMILES	inhibition at 1 µM [1] [%]	inhibition at 1 µM [2] [%]	inhibition at 1 µM [3] [%]	inhibition at 1 µM [4] [%]	inhibition at 1 µM [5] [%]	inhibition at 1 µM [6] [%]	inhibition at 1 µM [7] [%]	inhibition at 1 µM [8] [%]	inhibition at 1 µM [9] [%]	inhibition at 1 µM [10] [%]
C=CC(=O)Nc1cc(NC(=O)NC2CCN(Cc3ccc(-c4nc5cc[nH]c(=O)c5cc4-c4ccccc4)cc3)CC2)ccc1Cl [compound 27]	3	17	6	9	1	61	8	0	1	-4
C=CC(=O)Nc1cccc(C(=O)NC2CCN(Cc3ccc(-c4nc5cc[nH]c(=O)c5cc4-c4ccccc4)cc3)CC2)c1 [30b]	44	26	11	9	6	29	2	16	8	5
C=CC(=O)Nc1ccc2c(c1)n(C1CCN(Cc3ccc(-c4nc5cc[nH]c(=O)c5cc4-c4ccccc4)cc3)CC1)c(=O)n2C [24b]	28	23	7	6	5	4	3	2	0	-4
